The results in this text go back to ChEMBL document CHEMBL6074671, “Discovery of Pyridine-2-Carboxamides Derivatives as Potent and Selective HPK1 Inhibitors for the Treatment of Cancer” (J Med Chem, 2024).

Series [1] has as its target T1, Mitogen-activated protein kinase kinase kinase kinase 1 (Homo sapiens, UniProt Q92918). As to the kind of experiment: Inhibition of HPK1 in human PBMC cells assessed as IL-2 level pretreated for 4 hrs followed by anti-CD3/CD28 stimulation for 20 mins by HTRF method. In kind it is cell-based. In general terms: TR-FRET usually uses a lanthanide donor and a delayed reading to cut background.

The target in series [2] is T2, Mitogen-activated protein kinase kinase kinase kinase 3 (Homo sapiens, UniProt Q8IVH8).
T2 sequence (Q8IVH8 whole entry): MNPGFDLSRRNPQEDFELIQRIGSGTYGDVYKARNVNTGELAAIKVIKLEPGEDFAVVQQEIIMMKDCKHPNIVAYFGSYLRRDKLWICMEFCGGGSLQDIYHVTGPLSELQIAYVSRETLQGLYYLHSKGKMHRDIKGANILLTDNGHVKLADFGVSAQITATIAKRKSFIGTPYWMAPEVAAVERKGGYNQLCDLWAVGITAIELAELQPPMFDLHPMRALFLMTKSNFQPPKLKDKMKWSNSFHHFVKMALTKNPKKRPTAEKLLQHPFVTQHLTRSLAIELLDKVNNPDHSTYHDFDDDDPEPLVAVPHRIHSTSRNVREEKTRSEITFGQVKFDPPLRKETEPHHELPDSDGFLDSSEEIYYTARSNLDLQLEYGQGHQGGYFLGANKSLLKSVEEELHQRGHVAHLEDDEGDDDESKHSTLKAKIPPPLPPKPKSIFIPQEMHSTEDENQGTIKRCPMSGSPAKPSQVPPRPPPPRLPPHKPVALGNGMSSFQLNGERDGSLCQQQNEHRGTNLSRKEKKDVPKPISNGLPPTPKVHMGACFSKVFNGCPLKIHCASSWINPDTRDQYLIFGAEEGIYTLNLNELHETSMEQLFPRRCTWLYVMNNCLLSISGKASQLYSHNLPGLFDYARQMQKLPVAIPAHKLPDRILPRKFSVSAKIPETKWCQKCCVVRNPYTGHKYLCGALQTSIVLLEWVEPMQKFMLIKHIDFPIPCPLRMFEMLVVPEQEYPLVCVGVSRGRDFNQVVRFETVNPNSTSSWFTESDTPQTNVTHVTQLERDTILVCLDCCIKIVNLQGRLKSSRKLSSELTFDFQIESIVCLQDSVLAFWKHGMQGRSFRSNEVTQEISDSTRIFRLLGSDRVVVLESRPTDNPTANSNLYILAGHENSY
As to the kind of experiment: Inhibition of GLK (unknown origin).

The target of series [3] is T1, Mitogen-activated protein kinase kinase kinase kinase 1. Put plainly: Inhibition of human recombinant wild type N-terminal HPK1 (1 to 346 residues) infected in insect Sf21 cells using fluorescein-PKC as substrate preincubated for 10 mins followed by substrate addition and measured after 90 mins by microplate reader based analysis. The format is single protein.
Series [4] is described as follows: Inhibition of pSLP76 in human PBMC cells incubated for 4 hrs by HTRF method. The format is cell-based.
Series [5] in a line: Effect on IFN-gamma secretion in human T cells by ELISA method. In kind it is functional, cell-based. The following applies: T-cell. (In general: ELISA stands for enzyme-linked immunosorbent assay.)
The nature of series [6]: Effect on IL-2 secretion in human T cells by ELISA method. The format is functional, cell-based. The following applies: T-cell.
Series [7] in a line: Oral bioavailability in Balb/c mouse. The following applies: in vivo. The format is ADME, organism-based.
Series [8] can be described thus: Volume of distribution in Balb/c mouse administered as iv dose. In kind it is ADME, organism-based. The following applies: in vivo.
Series [9] is described as follows: Half life in Balb/c mouse administered as po dose. In kind it is ADME, organism-based. The following applies: in vivo.
The nature of series [10]: Clearance in Balb/c mouse plasma administered as iv dose. The format is ADME, organism-based.
The nature of series [11]: Dose normalized AUC (0 to 24 hrs) in Balb/c mouse administered as po dose. The format is ADME, organism-based. The following applies: in vivo.
The nature of series [12]: in vivo. The following applies: Sprague-Dawley, rat, iv, 1 mg/kg.
Description: Volume of distribution in Sprague-Dawley rat at 1 mg/kg, iv
Series [13] can be described thus: Dose normalized AUC (0 to 24 hrs) in Balb/c mouse at 10 mg/kg, po. In kind it is ADME, organism-based. The following applies: in vivo.
A short description of series [14]: Oral bioavailability n Sprague-Dawley rat at 10 mg/kg. In kind it is ADME, organism-based. The following applies: in vivo.
For series [15] the following is noted: dog, in vivo, po, 2 mg/kg.
A short description of series [16]: Dose normalized AUC (0 to 24 hrs) in Sprague-Dawley rat at 10 mg/kg, po. The format is ADME, organism-based. The following applies: in vivo.
The nature of series [17]: in vivo. The following applies: Beagle, dog, iv, 1 mg/kg.
Description: Volume of distribution in Beagle dog at 1 mg/kg, iv
The nature of series [18]: in vivo. To be noted: Sprague-Dawley, rat, plasma, iv, 1 mg/kg.
Description: Clearance in Sprague-Dawley rat plasma at 1 mg/kg, iv
Series [19] in a line: in vivo. The following applies: Beagle, dog, plasma, iv, 1 mg/kg.
Description: Clearance in Beagle dog plasma at 1 mg/kg, iv
Series [20] can be described thus: in vivo. To be noted: Beagle, dog, po, 2 mg/kg.
The nature of series [21]: Oral bioavailability in Balb/c mouse at 10 mg/kg. In kind it is ADME, organism-based. To be noted: in vivo.
Series [22] can be described thus: in vivo. The following applies: Beagle, dog, po, 2 mg/kg. This is another data set of the same source.
Description: Half life in Beagle dog at 2 mg/kg, po
Series [23] can be described thus: Half life in Balb/c mouse at 10 mg/kg, po. The following applies: in vivo. The format is ADME, organism-based.
A short description of series [24]: in vivo. To be noted: Balb/c, mouse, iv, 1 mg/kg.
Description: Volume of distribution in Balb/c mouse at 1 mg/kg, iv
Series [25] is described as follows: in vivo. To be noted: Balb/c, mouse, plasma, iv, 1 mg/kg.
Description: Clearance in Balb/c mouse plasma at 1 mg/kg, iv
Series [26] in a line: Half life in Sprague-Dawley rat at 10 mg/kg, po. The following applies: in vivo. The format is ADME, organism-based.
Series [27] in a line: in vivo. The following applies: Sprague-Dawley, rat, iv.
Description: Volume of distribution in Sprague-Dawley rat administered as iv dose
A short description of series [28]: in vivo. The following applies: Sprague-Dawley, rat, plasma, iv.
Description: Clearance in Sprague-Dawley rat plasma administered as iv dose
Series [29] is described as follows: in vivo. The following applies: Sprague-Dawley, rat, po.
Description: Half life in Sprague-Dawley rat administered as po dose
Series [30] is described as follows: in vivo. The following applies: Sprague-Dawley, rat, po. The source holds these as a separate data set.
Description: Oral bioavailability in Sprague-Dawley rat

T1 sequence (Q92918 whole entry): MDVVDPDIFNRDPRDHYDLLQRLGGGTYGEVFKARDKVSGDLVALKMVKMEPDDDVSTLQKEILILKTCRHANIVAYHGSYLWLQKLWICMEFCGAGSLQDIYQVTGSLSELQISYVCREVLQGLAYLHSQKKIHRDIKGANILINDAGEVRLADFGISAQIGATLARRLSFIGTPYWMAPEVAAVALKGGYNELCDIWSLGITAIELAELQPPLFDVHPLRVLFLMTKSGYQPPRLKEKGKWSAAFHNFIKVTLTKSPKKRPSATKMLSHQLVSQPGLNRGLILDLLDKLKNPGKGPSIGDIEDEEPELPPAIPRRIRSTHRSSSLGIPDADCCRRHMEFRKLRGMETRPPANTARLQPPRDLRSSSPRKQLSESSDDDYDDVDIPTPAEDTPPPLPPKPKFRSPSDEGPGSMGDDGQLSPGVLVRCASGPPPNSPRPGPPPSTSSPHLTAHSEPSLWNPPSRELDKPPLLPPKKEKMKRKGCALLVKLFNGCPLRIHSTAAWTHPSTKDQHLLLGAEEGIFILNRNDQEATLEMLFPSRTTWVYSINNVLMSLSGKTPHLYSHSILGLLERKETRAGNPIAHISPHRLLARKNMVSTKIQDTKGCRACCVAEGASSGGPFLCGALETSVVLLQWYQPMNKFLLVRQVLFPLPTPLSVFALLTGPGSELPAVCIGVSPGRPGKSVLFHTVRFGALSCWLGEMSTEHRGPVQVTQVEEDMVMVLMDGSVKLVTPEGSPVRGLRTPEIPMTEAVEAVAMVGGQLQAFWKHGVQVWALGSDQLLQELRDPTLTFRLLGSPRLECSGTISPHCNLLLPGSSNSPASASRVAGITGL

For `COc1cc(Nc2ccc3c(n2)CN(C)C32CCOCC2)c(C(N)=O)nc1-c1cccc2c1ncn2C(F)F`, in series [1], the concentration giving a half-maximal response (EC50) amounted to 102 nM. For the same compound, the IC50 in series [2] was 322 nM; in series [3], under 0.51 nM.

Turning to `COc1cc(Nc2ccc3c(n2)CN(C)C32CCOCC2)c(C(N)=O)nc1-c1cncc2c1ccn2C`, the IC50 in [2] is 95 nM; in [3], under 0.51 nM.

Regarding `COc1cc(Nc2ccc3c(n2)CN(C)C32CCCC2)c(C(N)=O)nc1-c1cccc2c1ncn2C`, the EC50 in series [1] came out at 149 nM. The IC50 was 162 nM in [2] and under 0.51 nM in [3].

`CN(C)Cc1nc(Nc2ccc(-c3cnc4cc(F)ccn34)c3c2C(=O)NC3)ccc1C1CCOCC1`: the IC50 in series [4] was 14 nM. Further, the EC50 worked out at 22.2 nM in series [5] and 35.3 nM in [6].

Turning to `COc1cc(Nc2ccc3c(n2)CN(C)C32CCOCC2)c(C(N)=O)nc1-c1ccnc2c1ccn2C`, the values for the half-inhibitory concentration (IC50) in [2] and in series [3] were 27 nM and under 0.51 nM, respectively.

In the case of `CN1Cc2nc(Nc3ccc(C4=CCCC(NC(=O)c5ccccc5)C4)nc3C(N)=O)ccc2C12CCOCC2` (stereo unspecified), in [7], the bioavailability came to 38.6%. The same compound showed a distribution volume (Vd) in series [8] of 1.08 L/kg. Further, the half-life in series [9] was 0.93 h. The compound further displayed a clearance in series [10] of 23.7 mL/min/kg. Besides, the IC50 was found to be 28.4 nM in series [2] and 0.64 nM in series [3]. Further, the AUC/dose in [11] turned out to be 273.3 ng·h/mL.

In the case of `CCN1Cc2nc(Nc3cc(OC)c(-c4cccc5c4ncn5C)nc3C(N)=O)ccc2C12CCOCC2`, the EC50 in series [1] was found to be 168 nM. For the same compound, the results for the IC50 in [2] and in series [3] were 239 nM and under 0.51 nM, respectively.

On to `CN1Cc2nc(Nc3cc(OC(F)F)c(-c4cccc5c4ncn5C)nc3C(N)=O)ccc2C12CCOCC2`, for which the EC50 in series [1] was 54.9 nM. The IC50 is 153 nM in [2] and under 0.51 nM in series [3].

For the compound `CN1Cc2nc(Nc3cc(C4CC4)c(-c4cccc5c4ncn5C)nc3C(N)=O)ccc2C12CCN(C1COC1)CC2`, the concentration giving a half-maximal response (EC50) in series [1] was determined as 32.7 nM. The figures for the Vd in series [12], in series [17] and in [24] were 2.25 L/kg, 6 L/kg and 1.08 L/kg, respectively. Besides, the AUC/dose in [13] stood at 308.2 ng·h/mL; in [15] it was 289.2 ng·h/mL; in series [16], 4502 ng·h/mL. The bioavailability in series [14] stood at 54.7%; in [20] it was 26.3%; in series [21], 24.6%. Besides, the figures for the clearance in series [18], in series [19] and in series [25] were 19.8 mL/min/kg, 14.7 mL/min/kg and 13.2 mL/min/kg, respectively. The IC50 was 114 nM in series [2] and under 0.51 nM in [3]. In addition, the half-life in series [22] is 6.06 h; in [23] it was 4.33 h; in series [26] it was 2.61 h.

As for `COc1cc(Nc2ccc3c(n2)CN(C)C32CCOCC2)c(C(N)=O)nc1-c1cncc2c1ncn2C`, the EC50 in series [1] is 10 nM. Also, the Vd in series [27] was 1.75 L/kg. In series [28], the clearance stood at 32.6 mL/min/kg. In series [29], the half-life is 1.22 h. In series [30], this compound showed a bioavailability of 24.3%. Moreover, the half-maximal inhibitory concentration (IC50) in series [2] was 241 nM; in series [3], under 0.51 nM.

What is called EC50 is the midpoint of the concentration-response curve. Broadly, the IC50 is the concentration at which inhibition is half-maximal. Broadly, the bioavailability is dose-corrected exposure relative to a reference, in per cent. A lower bioavailability goes with little systemic uptake. The Vd is a proportionality between amount in the body and measured concentration, not a real space. As a reminder, the half-life is the time in which the quantity being followed falls by half. Usually clearance stands for the volume of plasma or blood freed of the substance per unit of time. Low readings indicate a low capacity for elimination, high ones a high capacity for elimination.
